For data set [1] the following is noted: Crystal; DTA.
Data set [2] can be described thus: Molar enthalpy of transition or fusion. Conditions: Crystal; DSC.

± gives the expanded uncertainty stated by the source.

Consider `O=S1(=O)c2ccccc2-c2ccccc21` [dibenzothiophene sulfone], for which the Normal melting temperature in data set [1] amounted to 236.1 ± 0.5 °C. Besides, the “Molar enthalpy of transition or fusion” value in data set [2] stood at 6.49 ± 0.196 kcal/mol.

These data come from the NIST ThermoML archive (doi:10.1021/je700234e).
